Earlier results as cited in PubChem BioAssay AID1259409 (Chemical Carcinogenesis Research Information System (CCRIS), 2018).

Tested on: rodent chemically induced tumor inhibition, incidence and multiplicity
Assay: CCRIS tumor inhibitor studies
Conditions: Dose [Inhibitor]: 0, Promoter: NONE USED

Structure (SMILES): Cn1c(=O)c2c(ncn2C)n(C)c1=O
- tumour outcome (control, treated, inhibition, significance) (Carcinogen: 7,12-DIMETHYLBENZ[A]ANTHRACENE, 57-97-6, 500 MG/L IN DRINKING WATER OF 58 DAY OLD VIRGIN RATS (STUDY DURATION: 56 WK), Route [Inhibitor]: ORAL, Species: RAT, Strain/Sex: SPRAGUE-DAWLEY/FEMALE, Target Tissue: Type of Lesion: MAMMARY GLAND: FIBROADENOMA, Dose [Carcinogen]: 2 MG/100 G BW ONCE AT 55 D OF AGE): 86%, 68%, 21%, not significant
- tumour outcome (control, treated, inhibition, significance) (Carcinogen: 7,12-DIMETHYLBENZ[A]ANTHRACENE, 57-97-6, 500 MG/L IN DRINKING WATER OF 150 DAY OLD PAROUS RATS (STUDY DURATION: 165 D), Route [Inhibitor]: ORAL, Species: RAT, Strain/Sex: SPRAGUE-DAWLEY/FEMALE, Target Tissue: Type of Lesion: MAMMARY GLAND: CARCINOMA, Dose [Carcinogen]: 20 MG/ML IN CORN OIL ONCE AT 135 D OF AGE): 21%, 3%, 86%, not calculated
- tumour outcome (control, treated, inhibition, significance) (Carcinogen: 7,12-DIMETHYLBENZ[A]ANTHRACENE, 57-97-6, 500 MG/L IN DRINKING WATER OF 150 DAY OLD PAROUS RATS (STUDY DURATION: 165 D), Route [Inhibitor]: ORAL, Species: RAT, Strain/Sex: SPRAGUE-DAWLEY/FEMALE, Target Tissue: Type of Lesion: MAMMARY GLAND: FIBROADENOMA, Dose [Carcinogen]: 20 MG/ML IN CORN OIL ONCE AT 135 D OF AGE): 62%, 40%, 35%, not significant
- tumour outcome (control, treated, inhibition, significance) (Carcinogen: 7,12-DIMETHYLBENZ[A]ANTHRACENE, 57-97-6, 500 MG/L IN DRINKING WATER OF 150 DAY OLD VIRGIN RATS (STUDY DURATION: 165 D), Route [Inhibitor]: ORAL, Species: RAT, Strain/Sex: SPRAGUE-DAWLEY/FEMALE, Target Tissue: Type of Lesion: MAMMARY GLAND: CARCINOMA, Dose [Carcinogen]: 20 MG/ML IN CORN OIL ONCE AT 135 D OF AGE): 45%, 20%, 56%, p<0.05
- tumour outcome (control, treated, inhibition, significance) (Carcinogen: 7,12-DIMETHYLBENZ[A]ANTHRACENE, 57-97-6, 500 MG/L IN DRINKING WATER OF 150 DAY OLD VIRGIN RATS (STUDY DURATION: 165 D), Route [Inhibitor]: ORAL, Species: RAT, Strain/Sex: SPRAGUE-DAWLEY/FEMALE, Target Tissue: Type of Lesion: MAMMARY GLAND: FIBROADENOMA, Dose [Carcinogen]: 20 MG/ML IN CORN OIL ONCE AT 135 D OF AGE): 72%, 43%, 40%, p<0.05
- tumour outcome (control, treated, inhibition, significance) (Carcinogen: 17BETA-ESTRADIOL, 50-28-2, PROGESTERONE, 57-83-0, Carcinogen: 17BETA-ESTRADIOL, 50-28-2, PROGESTERONE, 57-83-0, 500 MG/L IN DISTILLED DRINKING WATER FOR 23 WK BEGINNING 1 WK POST FIRST CARCINOGEN DOSE (STUDY DURATION: 24 WK), Route [Inhibitor]: ORAL, Species: MOUSE, Strain/Sex: GR/A/FEMALE, Target Tissue: Type of Lesion: MAMMARY GLAND: TUMOR, Dose [Carcinogen]: 0.5 MG/L 17BETA-ESTRADIOL IN DRINKING WATER FOR 24 WK AND 30 MG PROGESTERONE IN PELLETS RENEWED EVERY 30 D FOR 24 WK): 55/55 (100%), 52/55 (95%), 5%, not significant
- tumour outcome (control, treated, inhibition, significance) (Carcinogen: 17BETA-ESTRADIOL, 50-28-2, PROGESTERONE, 57-83-0, Carcinogen: 17BETA-ESTRADIOL, 50-28-2, PROGESTERONE, 57-83-0, 500 MG/L IN DISTILLED DRINKING WATER FOR 23 WK BEGINNING 1 WK POST FIRST CARCINOGEN DOSE (STUDY DURATION: 24 WK), Route [Inhibitor]: ORAL, Species: MOUSE, Strain/Sex: GRS/SN/FEMALE, Target Tissue: Type of Lesion: MAMMARY GLAND: TUMOR, Dose [Carcinogen]: 0.5 MG/L 17BETA-ESTRADIOL IN DRINKING WATER FOR 24 WK AND 30 MG PROGESTERONE IN PELLETS RENEWED EVERY 30 D FOR 24 WK): 46/47 (98%), 44/45 (98%), 0%, not significant
- tumour outcome (control, treated, inhibition, significance) (Carcinogen: BENZO[A]PYRENE, 50-32-8, 1 MG/D FOR 6 WK (STUDY DURATION: 9 WK), Route [Inhibitor]: GAVAGE, Species: MOUSE, Strain/Sex: NIGP(S)/FEMALE, Target Tissue: Type of Lesion: LUNG: ADENOMA, Dose [Carcinogen]: 0.5 MG INJECTED IN THE SCAPULAR REGION OF NEWBORN MICE ONCE): 35%, 21%, 40%, not calculated
- tumour outcome (control, treated, inhibition, significance) (Carcinogen: BENZO[A]PYRENE, 50-32-8, 1 MG/D FOR 6 WK (STUDY DURATION: 9 WK), Route [Inhibitor]: GAVAGE, Species: MOUSE, Strain/Sex: NIGP(S)/MALE, Target Tissue: Type of Lesion: LUNG: ADENOMA, Dose [Carcinogen]: 0.5 MG INJECTED IN THE SCAPULAR REGION OF NEWBORN MICE ONCE): 48%, 18%, 63%, not calculated
- tumour outcome (control, treated, inhibition, significance) (Carcinogen: BENZO[A]PYRENE, 50-32-8, 2 MG/D FOR 6 WK (STUDY DURATION: 9 WK), Route [Inhibitor]: GAVAGE, Species: MOUSE, Strain/Sex: NIGP(S)/FEMALE, Target Tissue: Type of Lesion: LUNG: ADENOMA, Dose [Carcinogen]: 0.5 MG INJECTED IN THE SCAPULAR REGION OF NEWBORN MICE ONCE): 35%, 5%, 86%, not calculated
- tumour outcome (control, treated, inhibition, significance) (Carcinogen: BENZO[A]PYRENE, 50-32-8, 2 MG/D FOR 6 WK (STUDY DURATION: 9 WK), Route [Inhibitor]: GAVAGE, Species: MOUSE, Strain/Sex: NIGP(S)/MALE, Target Tissue: Type of Lesion: LUNG: ADENOMA, Dose [Carcinogen]: 0.5 MG INJECTED IN THE SCAPULAR REGION OF NEWBORN MICE ONCE): 48%, 5%, 90%, not calculated
- tumour outcome (control, treated, inhibition, significance) (Carcinogen: DIETHYLNITROSAMINE, 55-18-5, 300 MG/L IN DRINKING WATER BEGINNING 3 D PRIOR TO FIRST CARCINOGEN DOSE AND CONTINUING TO 14 D POST LAST CARCINOGEN D, Route [Inhibitor]: ORAL, Species: RAT, Strain/Sex: BD6/FEMALE, Target Tissue: Type of Lesion: ESOPHAGUS: TUMOR, Dose [Carcinogen]: 80 MG/KG BW 1/WK FOR 9 WK): 50%, 54%, -8%, not significant
- tumour outcome (control, treated, inhibition, significance) (Carcinogen: DIETHYLNITROSAMINE, 55-18-5, 300 MG/L IN DRINKING WATER BEGINNING 3 D PRIOR TO FIRST CARCINOGEN DOSE AND CONTINUING TO 14 D POST LAST CARCINOGEN D, Route [Inhibitor]: ORAL, Species: RAT, Strain/Sex: BD6/FEMALE, Target Tissue: Type of Lesion: LIVER: TUMOR, Dose [Carcinogen]: 80 MG/KG BW 1/WK FOR 9 WK): 100%, 95%, 5%, not significant
